Data: PMC6270455, “Antibacterial and Herbicidal Activity of Ring-Substituted 3-Hydroxynaphthalene-2-carboxanilides” (Molecules, 2013)
In brackets after ≈: the same amount, converted by molar mass. Where two headings read alike, the source gives them in different places.

Key:
[1] = test system: human monocytic leukemia THP-1 cells; conditions: assessed in this line formerly; cited from earlier work
[2] = Lipophilicity determination by RP-HPLC (capacity factor, log k); format: physicochemical; conditions: RP-HPLC capacity factor logarithm; C18 column, MeOH 60% / H2O 40%, 40 °C
Description: Lipophilicity of the studied compounds was determined by RP-HPLC as capacity factor logarithm (log k) and calculated as log P using ACD/Percepta software. […] It is important to note that lipophilicity also has a great impact on target and off-target interactions, as mentioned below.
A HPLC system Agilent 1200 equipped with DAD detector (Agilent, Santa Clara, CA, USA) was used. A chromatographic column Symmetry® C18 5 μm, 4.6 × 250 mm, Part No. WAT054275, (Waters Corp., Milford, MA, USA) was used. The HPLC separation process was monitored and evaluated by EZChrom Elite software ver. 3.3.2 (Agilent). Isocratic elution by a mixture of MeOH p.a. (60%) and H2O-HPLC Mili-Q grade (40%) as a mobile phase was used. The total flow of the column was 1.0 mL/min, injection 20 μL, column temperature 40 °C and sample temperature 10 °C. The detection wavelength 210 nm was chosen. The KI methanolic solution was used for the dead time (tD) determination. Retention times (tR) were measured in minutes. The capacity factors k were calculated according to formula k = (tR − tD)/tD, where tR is the retention time of the solute, whereas tD denotes the dead time obtained using an unretained analyte. Log k, calculated from the capacity factor k, is used as the lipophilicity index converted to log P scale.

[3] = test system: photosynthetic electron transport (PET) in spinach chloroplasts; test: Inhibition of photosynthetic electron transport (PET) in spinach chloroplasts (DCPIP photoreduction); format: biochemical, Spinacia oleracea L.
Description: Chloroplasts were prepared from spinach (Spinacia oleracea L.) according to Masarovicova and Kralova. The inhibition of photosynthetic electron transport (PET) in spinach chloroplasts was determined spectrophotometrically (Genesys 6, Thermo Scientific), using an artificial electron acceptor 2,6-dichlorophenol-indophenol (DCIPP) according to Kralova et al., and the rate of photosynthetic electron transport was monitored as a photoreduction of DCPIP. The measurements were carried out in phosphate buffer (0.02 mol/L, pH 7.2) containing sucrose (0.4 mol/L), MgCl2 (0.005 mol/L) and NaCl (0.015 mol/L). The chlorophyll content was 30 mg/L in these experiments and the samples were irradiated (~100 W/m^2 with 10 cm distance) with a halogen lamp (250 W) using a 4 cm water filter to prevent warming of the samples (suspension temperature 22 °C). The studied compounds were dissolved in DMSO due to their limited water solubility. […] The inhibitory efficiency of the studied compounds was expressed by IC50 values, i.e., by molar concentration of the compounds causing 50% decrease in the oxygen evolution rate relative to the untreated control.

[4] = test system: Staphylococcus aureus ATCC 29213; test: In vitro antibacterial susceptibility testing, broth dilution micro-method; format: cell-based; conditions: ATCC29213, MH broth, 24 h, 37 °C
Description: (§1) The synthesized compounds were evaluated for in vitro antibacterial activity against representatives of multidrug-resistant bacteria, clinical isolates of methicillin-resistant Staphylococcus aureus (MRSA) 63718, SA 630 and SA 3202 that were obtained from the National Institute of Public Health, Prague, Czech Republic. Staphylococcus aureus ATCC 29213 was used as a reference and quality control strain. Ampicillin (Sigma-Aldrich) was used as the standard. Prior to testing, each strain was passaged onto nutrient agar (Oxoid, Hampshire, UK) with 5% of bovine blood, and bacterial inocula were prepared by suspending a small portion of bacterial colony in sterile phosphate buffered saline (pH 7.2–7.3). The cell density was adjusted to 0.5 McFarland units using a densitometer (Densi-La-Meter, LIAP, Riga, Latvia). The final inoculum was made by 1:20 dilution of the suspension with the Mueller-Hinton broth (MH broth). […] The broth dilution micro-method modified according to NCCLS guidelines in MH broth was used to determine the minimum inhibitory concentration (MIC). Drug-free controls, sterility controls and controls consisted of MH broth and DMSO alone were included. The determination of results was performed visually after 24 h of static incubation in the darkness at 37 °C in an aerobic atmosphere. The MICs were defined as the lowest concentration of the compound at which no visible bacterial growth was observed.

[5] = test system: methicillin-resistant Staphylococcus aureus (MRSA) 63718; test: as above; format: cell-based; conditions: Staphylococcus aureus; clinical isolate MRSA 63718; MH broth, 24 h, 37 °C
Description: as §1

[6] = test system: methicillin-resistant S. aureus SA 3202; test: as above; format: cell-based, Staphylococcus aureus; conditions: Staphylococcus aureus; clinical isolate MRSA SA 3202; MH broth, 24 h, 37 °C
Description: as §1

[7] = test system: methicillin-resistant S. aureus SA 630; test: as above; format: cell-based, Staphylococcus aureus; conditions: Staphylococcus aureus; clinical isolate MRSA SA 630; MH broth, 24 h, 37 °C
Description: as §1

[8] = test system: Mycobacterium marinum CAMP 5644; test: In vitro antimycobacterial evaluation, broth dilution micro-method; format: cell-based; conditions: CAMP5644, 504 h, Middlebrook 7H9, 21 days, 28 °C
M. kansasii DSM 44162 = test: as above; format: cell-based; conditions: Mycobacterium kansasii, DSM44162, 168 h, Middlebrook 7H9, 7 days, 37 °C
[9] = test system: human monocytic leukemia THP-1 cells; format: cell-based; conditions: 24 h
Description: Human monocytic leukemia THP-1 cells were used for in vitro toxicity assay. Cells were obtained from the European Collection of Cell Cultures (ECACC, Salisbury, UK) and routinely cultured in RPMI medium supplemented with 10% fetal bovine serum, 2% L-glutamine, 1% penicillin and streptomycin at 37 °C with 5% CO2. Cytotoxicity was determined using a WST-1 assay kit (Roche Diagnostics, Mannheim, Germany) according to the manufacturer’s instructions. The tested compounds were dissolved in DMSO and added in five increasing concentrations (0.37, 1.1, 3.3, 10, and 30 μmol/L) to the cell suspension in the culture medium. Subsequently, the cells were incubated for 24 h at 37 °C with 5% CO2. WST-1 assays conducted in triplicates were performed as previously described. The median lethal dose values, LD50, were deduced through the production of a dose-response curve. All data were evaluated using GraphPad Prism 5.00 software (GraphPad Software, San Diego, CA, USA).

[10] = phosphate buffer pH 7.2, DCPIP acceptor

| SMILES | LD50 [1] | log k [2] | IC50 ([3]; as quoted in the chlorophyll a fluorescence discussion) | IC50 [3, 10] | MIC [4] | MIC [5] | MIC [6] | MIC [7] | MIC [8] | MIC (M. kansasii DSM 44162) | LD50 [9] |
| --- | --- | --- | --- | --- | --- | --- | --- | --- | --- | --- | --- |
| CC[C@@]1(O)C(=O)OCc2c1cc1n(c2=O)Cc2cc3ccccc3nc2-1 [camptothecin] | 0.20 ± 0.07 µmol/L | – | – | – | – | – | – | – | – | – | – |
| O=C(Nc1ccccc1C(F)(F)F)c1cc2ccccc2cc1O [compound 7a, 3-Hydroxy-N-(2-trifluoromethylphenyl)naphthalene-2-carboxamide] | – | 0.8762 | 105 µM | 105 µM | > 773 µM | > 773 µM | 97 µM (≈ 32.1 µg/mL) | > 773 µM | 193 µM (≈ 63.9 µg/mL) | 193 µM (≈ 63.9 µg/mL) | 28.6 ± 0.5 µmol/L |
| O=C(Nc1ccccc1[N+](=O)[O-])c1cc2ccccc2cc1O [compound 8a, 3-Hydroxy-N-(2-nitrophenyl)naphthalene-2-carboxamide] | – | 0.8710 | – | 107 µM | > 830 µM | > 830 µM | 415 µM (≈ 128 µg/mL) | 415 µM (≈ 128 µg/mL) | 830 µM (≈ 256 µg/mL) | 830 µM (≈ 256 µg/mL) | – |
| O=C(Nc1cccc([N+](=O)[O-])c1)c1cc2ccccc2cc1O [compound 8b, 3-Hydroxy-N-(3-nitrophenyl)naphthalene-2-carboxamide] | – | 0.8143 | – | 16.9 µM | > 830 µM | > 830 µM | > 830 µM | > 830 µM | > 830 µM | 415 µM (≈ 128 µg/mL) | 2.5 ± 0.9 µmol/L |
| O=C(Nc1ccc([N+](=O)[O-])cc1)c1cc2ccccc2cc1O [compound 8c, 3-Hydroxy-N-(4-nitrophenyl)naphthalene-2-carboxamide] | – | 0.9175 | – | 188 µM | > 830 µM | > 830 µM | > 830 µM | > 830 µM | > 830 µM | 13 µM (≈ 4.01 µg/mL) | – |
